Laboratory results published in patent US9765107B2, “Cyclic phosphonate substituted nucleoside derivatives and methods of use thereof for the treatment of viral diseases” (Merck Sharp & Dohme Corp., priority 2013, dated 2017).

What was measured:
[1] = Replicon activity assay (replicon RNA by real-time RT-PCR); type: cell-based, HCV; details: Hepatitis C virus, 72 h; replicon RNA level, three days post-dosing, 10% fetal bovine serum; read-out: Replicon (1a) EC50
[2] = tested on: replicon cells; test: Cytotoxicity MTS assay in replicon cells; type: cell-based; details: CC50, MTS assay, three days post dosing
Description: To measure cell-based anti-HCV activity of the compounds of the present invention, replicon cells (1b-Con1) are seeded at 5000 cells/well in 96-well plates one day prior to treatment with a compound of the invention. Various concentrations of a test compound of the invention in DMSO are then added to the replicon cells, with the final concentration of DMSO at 0.5% and fetal bovine serum at 10% in the assay media. Cells are harvested three days post-dosing and the replicon RNA level is determined using real-time RT-PCR (Taqman assay) with GAPDH RNA as endogenous control. EC50 values are calculated from experiments with 10 serial twofold dilutions of the inhibitor in triplicate. To measure cytotoxicity in replicon cells of an inhibitor, an MTS assay is performed according to the manufacturer's protocol for CellTiter 96 Aqueous One Solution Cell Proliferation Assay (Promega, Cat #G3580) three days post dosing on cells treated identically as in replicon activity assays. CC50 is the concentration of inhibitor that yields 50% inhibition compared to vehicle-treated cells. Cytotoxicity in other types of cells can be measured using the same MTS protocol.

Row | SMILES | EC50 [1] [µM] | Cytotoxicity [2] [µM]
1 | CC(C)O[P@@]1(=O)OC[C@H]2O[C@@H](n3ccc(=O)[nH]c3=O)[C@](C)(N)C2O1 (stereo partly drawn) | > 100 | >100
2 | C[C@@]1(N)[C@@H]2O[P@@](=O)(OCc3ccccc3)OC[C@H]2O[C@H]1n1ccc(=O)[nH]c1=O | 56.2 | >100
3 | C[C@@]1(N)[C@@H]2O[P@@](=O)(OC3CCCC3)OC[C@H]2O[C@H]1n1ccc(=O)[nH]c1=O | > 100 | >100
4 | CCC(CC)CO[P@@]1(=O)OC[C@H]2O[C@@H](n3ccc(=O)[nH]c3=O)[C@](C)(N)[C@@H]2O1 | 43.2 | >100
5 | CCCC(CCC)CO[P@@]1(=O)OC[C@H]2O[C@@H](n3ccc(=O)[nH]c3=O)[C@](C)(N)[C@@H]2O1 | > 100 | >100
6 | C[C@@]1(N)C2O[P@@](=O)(OC3CCC3)OC[C@H]2O[C@H]1n1ccc(=O)[nH]c1=O (stereo partly drawn) | > 100 | >100
